The record followed here is patent US5874436A, “Triphenylalkyl antimicrobial agents” (priority 1997, dated 1999).

As a reminder, the IC50 is the concentration needed to halve the response being measured. A higher IC50 goes with weaker potency. A word on the MIC: it is the least concentration at which growth counts as inhibited. Read a low MIC as greater potency.

In one experiment the target is T1, Kinase A and Spo0F (Bacillus subtilis, UniProt P16497).
T1 construct: made in house; host or cells: E. coli (recombinant, overexpressing)
T1 sequence (P16497 1-606): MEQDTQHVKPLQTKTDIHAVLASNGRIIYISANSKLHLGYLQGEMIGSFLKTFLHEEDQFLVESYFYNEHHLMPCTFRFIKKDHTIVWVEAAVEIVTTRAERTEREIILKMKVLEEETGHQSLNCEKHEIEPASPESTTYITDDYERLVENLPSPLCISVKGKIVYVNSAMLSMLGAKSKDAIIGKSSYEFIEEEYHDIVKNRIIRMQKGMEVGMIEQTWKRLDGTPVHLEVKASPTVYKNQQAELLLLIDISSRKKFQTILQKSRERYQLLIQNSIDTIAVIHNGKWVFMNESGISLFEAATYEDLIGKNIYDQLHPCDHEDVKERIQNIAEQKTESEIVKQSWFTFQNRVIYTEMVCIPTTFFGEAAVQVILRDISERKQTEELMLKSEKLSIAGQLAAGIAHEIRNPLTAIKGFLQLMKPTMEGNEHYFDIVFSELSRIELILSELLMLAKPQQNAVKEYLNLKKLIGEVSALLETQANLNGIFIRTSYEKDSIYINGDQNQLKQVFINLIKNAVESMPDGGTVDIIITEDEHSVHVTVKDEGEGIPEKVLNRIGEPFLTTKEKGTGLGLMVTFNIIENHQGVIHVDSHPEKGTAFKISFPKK
The experiment in a line: Autophosphorylation of Kinase A and transphosphorylation of Spo0F assay (HPK in vitro assay). The following applies: inhibitor concentrations from 1 to 500 μM, [32P]ATP, phosphoimager. Format: biochemical. The protocol: 1. Autophosphorylation of Kinase A and Transphosphorylation of Spo0F Assay
To study the effect of the compounds of the present invention on the signal transduction process in bacteria, the inhibiting effect of the compounds on the sporulation operon proteins Kinase A and Spo0F was examined. Specifically, the inhibition of autophosphorylation of Kinase A and the transphosphorylation of Spo0F was determined in the following assays. The Spo0F response regulator is the primary substrate for phosphorylation by the protein kinase, Kin A, involved in the sporulation process in bacteria. See D. Burbulys, K. A. Trach, J. A. Hoch, Cell, 64, 545-552 (1991). Spo0F and KinA were prepared from recombinant E. coli overexpressing the proteins (J. Cavanagh et al, Amino Acids, 6, 131-140 (1994) and references therein).
The following stock reagents were either prepared and used promptly or stored at the indicated temperature:
8 X Salts : 2M KCl (5 mL), 1M MgCl2 (800 mL), 1M CaCl2 (100 mL), 10 mg/mL phenylmethylsulfonyl fluoride (200 mL), 1 M dithioreitol (50 mL), 0.25M Na2 EDTA (32 mL) and H2 O mL (-20° C.)
5×Loading Dye: 0.5M TRIS-HCl-pH 6.8 (7.5 mL), 10% SDS (2 mL) 0.1% bromophenol blue (0.5 mL), 100% glycerol (3 mL) and 12.5 M 2-mercaptoethanol (0.3 mL)
1-1.3 mg/mL KinA:15 mM TRIS-HCl, pH 8.0, 6 mM KCl; 4 mM 2-mercaptoethanol; 40% glycerol (-20° C.)
1 mg/mL Spo0F: 17.5 mM TRIS-HCl, pH 8.0; 0.7 mM KCl; 0.7 mM MgCl2; 0.7 mM CaCl2; 5mM 2-mercaptoethanol; 30% Glycerol (-20° C.)
5% Stacking Gel: 40% 29:1 acrylamide:bis acrylamide (1.25 mL), 0.5M TRIS-HCl, pH 6.8 (2.5 mL), 10% SDS (0.1 mL), D-H2 O (6.15 mL) 10% ammonium persulfate (100 mL) and TEMED (25 mL) SDS Running Buffer: TRIS-BASE (3.02 g), glycine (14.4 g) SDS (1 g), D-H2 O (to 1L)
The reaction mixture was prepared from 8×Salts (87 μL), 1M TRIS, pH 8 (118 μL), 50% glycerol (63 μL), Spo0F (14.1 μL) and KinA (7.0 μL). Microcentrifuge tubes were charged with the reaction mixture (18.5 μL) and a 1.0 mM solution of the test compound in 5% DMSO (18.5 μL), and incubated for 15 min on ice. 100 mM ATP solution (3.0 μl, containing 625 μCi [^32 P]ATP) was added, and the mixture left for 10 minutes at room temperature. The reaction was quenched with 5×loading dye (10 μL per tube) and the samples were loaded on a prepared 5% Stacking Gel, or stored on dry ice until ready for use. The prepared wells were filled with SDS Running Buffer, samples were loaded into the wells, and 80 volts were applied to the gel until the dye front reached the bottom of the stacking gel. The voltage was then increased to 250 volts until electrophoresis was complete. Radioactive bands in the gel corresponding to phosphorylated KinA and Spo0F were imaged and quantitated with a phosphoimager.
If either enzyme was inhibited (as evidenced by the absence of labelled protein in the developed gel), an IC50 was calculated by running the assay with a range of inhibitor concentrations from 1 to 500 μM. After electrophoresis of the reaction mixtures, percent inhibition was determined by measuring the concentration of radioactive phosphorus with a phosphoimager and calculating the values using a software program (BioRad Molecular Analyst).

The next experiment deals with selected microorganisms. The experiment in a line: MIC antimicrobial assay (NCCLS microdilution broth method). Format: cell-based. On the procedure: 2. MIC Anitimicrobial Assay
The in vitro antimicrobial activity of the compounds was determined by the microdilution broth method following the test method from the National Committee for Laboratory Standards (NCCLS). This method is described in the NCCLS Document M7-A2, Vol.10, No.8 "Methods for Dilution Antimicrobial Susceptibility Test for Bacteria that Grow Aerobically--Second Edition."
In this method two-fold serial dilutions of drug in cation supplemented Mueller-Hinton broth are added to wells in microdilution trays. The test organisms are prepared by adjusting the turbidity of actively growing broth cultures so that the final concentration of test organism after it is added to the wells is approximately 5×10^4 CFUs/well).
Following inoculation of the microdilution trays, the trays are incubated at 35° C. for 16-20 hours and then read. […] The amount of growth in the wells containing the test compound is compared with the amount of growth in the growth-control wells (no test compound) used in each tray.
On the technique in general: Dilution methods test growth across graded concentrations, often in twofold steps.

≈ marks a conversion by molar mass, not a printed value.

`c1ccc(C(CCOc2ccc(CCc3nnn[nH]3)cc2)(c2ccccc2)c2ccccc2)cc1` [Example 27, 5-{2-[4-(3,3,3-Triphenylpropoxy)phenyl]ethyl}-1H-tetrazole] had an IC50 against Kinase A and Spo0F of 11 µM. Further, in the experiment with selected microorganisms, the MIC is 8 to 64 mg/L (≈ 17.4 to 139 µM).

On Kinase A and Spo0F, `[Cl-].c1ccc(C(CCOc2ccc(C[n+]3ccccc3)cc2)(c2ccccc2)c2ccccc2)cc1` [Example 29, 1-{[4-(3,3,3-triphenylpropoxy)-phenyl]methyl}pyridinium chloride] displayed an IC50 of 6 µM. Besides, the MIC with selected microorganisms is 2 to 4 mg/L.

`c1ccc(C(CCOc2ccc(Cc3nnn[nH]3)cc2)(c2ccccc2)c2ccccc2)cc1` [Example 32, 5-[4-(3,3,3-Triphenylpropoxy)phenyl]methyl-1H-tetrazole] had an IC50 against Kinase A and Spo0F of 19 µM. For the same compound, in the experiment on selected microorganisms, the MIC was in the range of 8 to 64 mg/L (≈ 17.9 to 143 µM).

`N=C(N)NCCc1ccc(OCCC(c2ccc(Cl)cc2)(c2ccc(Cl)cc2)c2ccc(Cl)cc2)cc1` [Example 9, N-(2-(4-(3,3,3-tris(4-chlorophenyl)propoxy)-phenyl)ethyl)guanidine] returned an IC50 on Kinase A and Spo0F of 21 µM. Besides, the MIC in the experiment with selected microorganisms was 8 mg/L (≈ 14.5 µM).

For the compound `O=C(Cc1ccc(O)cc1)OCCC(c1ccccc1)(c1ccccc1)c1ccccc1` [Example 23, 3,3,3-Triphenylpropyl 2-(4-hydroxyphenyl)acetate], on Kinase A and Spo0F, the IC50 is 170 µM. In the experiment on selected microorganisms, the MIC was greater than 128 mg/L.

With `N=C(N)NCCc1ccc(OCCC(c2ccccc2)(c2ccccc2)c2ccccc2)cc1` [Example 5], at Kinase A and Spo0F, the IC50 worked out at 5 µM. Also, the MIC with selected microorganisms lay in the range of 1 to 2 mg/L (≈ 2.22 to 4.45 µM).

In turn, `NCCc1ccc(OCCC(c2ccccc2)(c2ccccc2)c2ccccc2)cc1` [Example 3, 2-(4-(3,3,3-triphenylpropoxy)phenyl)ethylamine] yielded an IC50 on Kinase A and Spo0F of 14 µM. Moreover, the MIC in the experiment on selected microorganisms lay in the range of 2 to 4 mg/L (≈ 4.91 to 9.81 µM).

For `NCCc1ccc(NC(=O)CC(c2ccccc2)(c2ccccc2)c2ccccc2)cc1` [Example 16, N-[4-(2-Aminoethyl)phenyl]-3,3,3triphenylpropionamide], the half-maximal inhibitory concentration (IC50) on Kinase A and Spo0F amounted to 59 µM. This compound gave an MIC against selected microorganisms of 32 to 64 mg/L (≈ 76.1 to 152 µM).

Consider `O=C(O)CCCc1ccc(OCCC(c2ccccc2)(c2ccccc2)c2ccccc2)cc1` [Example 15, 4-[4-(3,3,3-Triphenylpropoxy)phenyl]butyric acid], for which the half-maximal inhibitory concentration (IC50) against Kinase A and Spo0F was 14 µM. The MIC in the experiment with selected microorganisms fell in the range of 8 to 64 mg/L (≈ 17.8 to 142 µM).

For `N=C(N)NCCc1ccc(OCCCCC(c2ccccc2)(c2ccccc2)c2ccccc2)cc1` [Example 10], at Kinase A and Spo0F, the IC50 worked out at 15 µM. Moreover, the MIC in the experiment with selected microorganisms lay in the range of 2 to 4 mg/L (≈ 4.19 to 8.37 µM).

`O=C(O)Cc1cccc(OCCC(c2ccccc2)(c2ccccc2)c2ccccc2)c1` [Example 34, 2-[3-(3,3,3-Triphenylpropoxy)phenyl]acetic acid]: the concentration for half-maximal inhibition (IC50) on Kinase A and Spo0F was 38 µM. In the experiment on selected microorganisms, this compound returned an MIC of 32 mg/L (≈ 75.7 µM).

`NCc1ccc2cc(OCCC(c3ccccc3)(c3ccccc3)c3ccccc3)ccc2c1` [Example 20, 6-(3,3,3-Triphenylpropoxy)-2-naphthylmethylamine] had an IC50 at Kinase A and Spo0F of 75 µM. In addition, in the experiment with selected microorganisms, the MIC is 4 to 8 mg/L (≈ 9.02 to 18 µM).

Compound `O=C(O)CCc1ccc(OCCC(c2ccccc2)(c2ccccc2)c2ccccc2)cc1` [Example 12, 3-[4-(3,3,3-Triphenylpropoxy)phenyl]propionic acid] had an IC50 against Kinase A and Spo0F of 51 µM. Further, in the experiment with selected microorganisms, the MIC lay in the range of 2 to 16 mg/L (≈ 4.58 to 36.7 µM).

On to `Cc1n(C)cc[n+]1Cc1ccc(OCCC(c2ccccc2)(c2ccccc2)c2ccccc2)cc1.[Cl-]` [Example 30, 1,2-Dimethyl-3-{[4-(3,3,3-triphenylpropoxy)-phenyl]methyl}imidazolium chloride], for which the IC50 against Kinase A and Spo0F was determined as 28 µM. Moreover, the MIC against selected microorganisms lay within 2 to 8 mg/L.

`O=C(/C=C/c1ccc(OCCC(c2ccccc2)(c2ccccc2)c2ccccc2)cc1)NCCO` [Example 25, trans N-(2-Hydroxyethyl)-4-(3,3,3-triphenylpropoxy)-cinnamide]: the IC50 against Kinase A and Spo0F was 150 µM. In addition, the MIC against selected microorganisms is greater than 128 mg/L.

On to `O=C(O)C(=Cc1ccc(OCCC(c2ccccc2)(c2ccccc2)c2ccccc2)cc1)C(=O)O` [Example 31, [4-(3,3,3-Triphenylpropoxy)benzylidene]malonic acid], for which the 50% inhibitory concentration (IC50) at Kinase A and Spo0F was found to be 54 µM. Besides, the MIC in the experiment with selected microorganisms was greater than 128 mg/L.

With `O=C(CCc1ccc(O)cc1)OCCC(c1ccccc1)(c1ccccc1)c1ccccc1` [Example 24, 3,3,3-Triphenylpropyl 3-(4-hydroxyphenyl)propionate], the IC50 at Kinase A and Spo0F stood at 160 µM. For the same compound, in the experiment on selected microorganisms, the MIC is greater than 128 mg/L.

`O=C(O)CCc1cccc(OCCC(c2ccccc2)(c2ccccc2)c2ccccc2)c1` [Example 35, 3-[3-(3,3,3-Triphenylpropoxy)phenyl]propionic acid] yielded an IC50 on Kinase A and Spo0F of 42 µM. The compound further displayed an MIC against selected microorganisms of 4 to 128 mg/L (≈ 9.16 to 293 µM).

In the case of `O=C(O)c1ccc2cc(OCCC(c3ccccc3)(c3ccccc3)c3ccccc3)ccc2c1` [Example 17, 6-(3,3,3-Triphenylpropoxy)-2-naphthoic acid], the IC50 on Kinase A and Spo0F is 300 µM. In the experiment on selected microorganisms, this compound had an MIC of 4 to 64 mg/L (≈ 8.72 to 140 µM).

Turning to `O=C(O)CCc1ccc(SCCC(c2ccccc2)(c2ccccc2)c2ccccc2)cc1` [Example 14, 3-[4-(3,3,3-Triphenylpropylthio)phenyl]propionic acid], the IC50 against Kinase A and Spo0F was determined as 34 µM. In the experiment with selected microorganisms, this compound had an MIC of 4 to 8 mg/L (≈ 8.84 to 17.7 µM).
